ChEMBL document CHEMBL1201862, “PubChem BioAssay data set” (2004)
Activity calls are given as the source filed them.

Columns and labels:
CAAX prenyl protease 2 = CAAX prenyl protease 2 (Homo sapiens, UniProt Q9Y256); test: inhibition of Ras-converting CAAX protease Rce1 – biochemical, yeast membranes, quenched-peptide fluorescence, cherry-pick, dose response (AID 588849)
Trypsin = Trypsin (Sus scrofa, UniProt P00761); test: trypsin protease activity blockade – biochemical, quenched peptide fluorescence, cherry-pick, selectivity assay for Rce1 protease inhibitor project, dose response (AID 488789)
Sequence of Trypsin (P00761 whole entry): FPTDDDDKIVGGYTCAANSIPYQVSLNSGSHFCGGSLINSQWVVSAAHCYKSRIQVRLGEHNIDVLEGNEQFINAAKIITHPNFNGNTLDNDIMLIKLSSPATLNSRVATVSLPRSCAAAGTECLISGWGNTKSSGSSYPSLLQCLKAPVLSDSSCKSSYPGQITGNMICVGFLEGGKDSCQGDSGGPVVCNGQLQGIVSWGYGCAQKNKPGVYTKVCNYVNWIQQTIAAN

[1] = target: 72 kDa type IV collagenase (Homo sapiens, UniProt P08253); test: Dose Response validation of uHTS RPN11 inhibitor hits using a MMP-2 Fluorescence assay.; assay type: functional
Sequence of 72 kDa type IV collagenase (P08253 whole entry): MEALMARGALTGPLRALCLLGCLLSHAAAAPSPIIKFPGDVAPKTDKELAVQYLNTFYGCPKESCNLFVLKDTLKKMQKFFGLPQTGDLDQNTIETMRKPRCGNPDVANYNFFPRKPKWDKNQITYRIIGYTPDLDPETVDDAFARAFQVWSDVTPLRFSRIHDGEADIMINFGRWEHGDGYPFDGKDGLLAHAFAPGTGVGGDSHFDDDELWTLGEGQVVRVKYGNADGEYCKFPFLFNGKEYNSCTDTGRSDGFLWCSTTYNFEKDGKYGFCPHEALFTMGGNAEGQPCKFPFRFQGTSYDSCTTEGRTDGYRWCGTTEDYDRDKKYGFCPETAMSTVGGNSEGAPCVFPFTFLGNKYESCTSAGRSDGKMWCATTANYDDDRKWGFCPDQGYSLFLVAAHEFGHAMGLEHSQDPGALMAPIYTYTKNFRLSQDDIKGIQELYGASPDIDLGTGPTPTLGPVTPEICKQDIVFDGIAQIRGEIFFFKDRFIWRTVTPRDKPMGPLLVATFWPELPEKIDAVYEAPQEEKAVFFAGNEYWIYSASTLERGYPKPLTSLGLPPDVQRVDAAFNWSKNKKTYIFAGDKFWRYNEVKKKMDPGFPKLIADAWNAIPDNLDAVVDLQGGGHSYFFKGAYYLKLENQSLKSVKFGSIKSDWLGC

[2] = nonselective StAR promoter luciferase inhibitors – cell-based, luminescence, luciferase reporter, counter-screen for LRH-1 inverse agonist project, dose response (AID 651969); assay type: functional
[3] = target: Glucose-6-phosphate 1-dehydrogenase (Homo sapiens, UniProt P11413); test: inhibition of Homo sapiens G6PD, dose series – biochemical, fluorescence, selectivity assay for P. falciparum G6PD inhibitor project, dose response (AID 504792); assay type: functional
Sequence of Glucose-6-phosphate 1-dehydrogenase (P11413 whole entry): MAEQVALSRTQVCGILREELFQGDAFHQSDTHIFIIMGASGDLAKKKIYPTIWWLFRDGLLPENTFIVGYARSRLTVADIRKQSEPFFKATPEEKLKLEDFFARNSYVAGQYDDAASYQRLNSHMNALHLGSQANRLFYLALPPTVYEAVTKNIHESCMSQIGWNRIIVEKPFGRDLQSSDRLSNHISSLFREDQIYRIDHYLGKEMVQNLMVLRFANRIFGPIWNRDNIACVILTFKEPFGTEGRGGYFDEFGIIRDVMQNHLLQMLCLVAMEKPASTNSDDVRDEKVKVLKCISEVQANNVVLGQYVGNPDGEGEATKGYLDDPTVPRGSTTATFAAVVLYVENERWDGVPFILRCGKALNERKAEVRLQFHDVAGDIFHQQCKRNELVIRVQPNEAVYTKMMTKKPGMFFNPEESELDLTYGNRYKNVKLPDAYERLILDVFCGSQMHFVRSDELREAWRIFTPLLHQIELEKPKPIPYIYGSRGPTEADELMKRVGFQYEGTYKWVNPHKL

Steroidogenic factor 1 = Steroidogenic factor 1 (Homo sapiens, UniProt Q13285); test: Counterscreen for inverse agonists of the liver receptor homolog-1 (LRH-1; NR5A2): Luminescence-based cell-based high throughput dose response assay to identify inverse agonists of the Steroidogenic Factor 1 Nuclear Receptor (SF1; NR5A1).; assay type: functional
Sequence of Steroidogenic factor 1 (Q13285 whole entry): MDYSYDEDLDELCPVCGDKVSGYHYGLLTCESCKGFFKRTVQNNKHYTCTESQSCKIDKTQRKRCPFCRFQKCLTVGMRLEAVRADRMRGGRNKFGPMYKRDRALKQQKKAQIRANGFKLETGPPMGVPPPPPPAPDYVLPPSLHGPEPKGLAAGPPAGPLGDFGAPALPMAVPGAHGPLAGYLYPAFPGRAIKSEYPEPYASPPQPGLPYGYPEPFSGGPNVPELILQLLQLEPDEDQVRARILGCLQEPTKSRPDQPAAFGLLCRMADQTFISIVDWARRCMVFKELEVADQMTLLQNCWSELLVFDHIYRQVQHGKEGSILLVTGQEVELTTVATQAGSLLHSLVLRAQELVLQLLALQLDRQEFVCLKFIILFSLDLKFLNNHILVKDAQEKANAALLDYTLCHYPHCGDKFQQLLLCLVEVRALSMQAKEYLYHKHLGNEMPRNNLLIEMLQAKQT

[4] = target: 26S proteasome non-ATPase regulatory subunit 14 (Homo sapiens, UniProt O00487); test: inhibition of proteasome subunit RPN11 – biochemical, fluorescence polarization, uHTS hits, confirmation (AID 602368); assay type: functional
Sequence of 26S proteasome non-ATPase regulatory subunit 14 (O00487 whole entry): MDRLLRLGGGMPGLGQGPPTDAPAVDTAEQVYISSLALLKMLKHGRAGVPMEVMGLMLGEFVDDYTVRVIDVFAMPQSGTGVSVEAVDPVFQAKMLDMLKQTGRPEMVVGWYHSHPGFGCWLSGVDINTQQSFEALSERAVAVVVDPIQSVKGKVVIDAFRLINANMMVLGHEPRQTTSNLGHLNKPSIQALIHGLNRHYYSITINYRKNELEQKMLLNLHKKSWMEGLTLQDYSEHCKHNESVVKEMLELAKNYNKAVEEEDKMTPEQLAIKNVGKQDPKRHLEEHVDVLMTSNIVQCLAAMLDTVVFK

[5] = target: T1, Zinc finger protein mex-5 (Caenorhabditis elegans, UniProt Q9XUB2); test: potency of MEX-5 RNA-binding blockers – biochemical, C. elegans, fluorescence polarization, dose response (AID 1960)
T1 sequence (Q9XUB2 whole entry): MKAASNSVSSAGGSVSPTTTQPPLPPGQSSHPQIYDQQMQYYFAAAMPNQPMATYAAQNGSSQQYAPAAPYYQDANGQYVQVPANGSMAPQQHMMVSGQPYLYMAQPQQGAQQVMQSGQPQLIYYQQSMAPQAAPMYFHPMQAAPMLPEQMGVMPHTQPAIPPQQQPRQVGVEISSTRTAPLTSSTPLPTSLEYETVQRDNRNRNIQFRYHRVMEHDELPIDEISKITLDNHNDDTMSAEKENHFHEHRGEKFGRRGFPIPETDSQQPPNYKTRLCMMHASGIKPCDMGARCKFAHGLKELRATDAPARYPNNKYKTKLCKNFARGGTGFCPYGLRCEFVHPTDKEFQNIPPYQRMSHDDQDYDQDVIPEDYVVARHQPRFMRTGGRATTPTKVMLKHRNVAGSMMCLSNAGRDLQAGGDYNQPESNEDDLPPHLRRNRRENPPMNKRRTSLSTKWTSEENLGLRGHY

Prothrombin = Prothrombin (Bos taurus, UniProt P00735); test: thrombin protease inhibitors – biochemical, fluorescence polarization, uHTS hits, dose response (AID 602369); assay type: functional
[6] = target: T2, RNA-binding protein pos-1 (Caenorhabditis elegans, UniProt G5EF15); test: disruptors of C. elegans POS-1 RNA interaction – biochemical, fluorescence polarization, dose response (AID 1964);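 further: purified POS-1 fused to maltose binding protein made in E. coli; potency of compounds blocking POS-1 binding to fluorescent RNA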
T2 sequence (G5EF15 whole entry): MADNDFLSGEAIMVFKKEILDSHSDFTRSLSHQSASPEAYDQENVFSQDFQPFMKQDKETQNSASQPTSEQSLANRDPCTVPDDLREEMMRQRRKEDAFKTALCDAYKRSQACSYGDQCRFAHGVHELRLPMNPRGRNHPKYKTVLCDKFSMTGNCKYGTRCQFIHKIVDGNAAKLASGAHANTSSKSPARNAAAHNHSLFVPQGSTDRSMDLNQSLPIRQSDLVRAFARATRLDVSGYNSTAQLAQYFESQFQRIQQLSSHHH

[7] = target: Nuclear receptor subfamily 5 group A member 2 (Homo sapiens, UniProt O00482); assay type: functional, cell-based;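 further: HEK293T cells transfected with LRH-1 and a StAR promoter luciferase reporter; potency for inhibitors that lower LRH-1 driven reporter light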
Sequence of Nuclear receptor subfamily 5 group A member 2 (O00482 whole entry): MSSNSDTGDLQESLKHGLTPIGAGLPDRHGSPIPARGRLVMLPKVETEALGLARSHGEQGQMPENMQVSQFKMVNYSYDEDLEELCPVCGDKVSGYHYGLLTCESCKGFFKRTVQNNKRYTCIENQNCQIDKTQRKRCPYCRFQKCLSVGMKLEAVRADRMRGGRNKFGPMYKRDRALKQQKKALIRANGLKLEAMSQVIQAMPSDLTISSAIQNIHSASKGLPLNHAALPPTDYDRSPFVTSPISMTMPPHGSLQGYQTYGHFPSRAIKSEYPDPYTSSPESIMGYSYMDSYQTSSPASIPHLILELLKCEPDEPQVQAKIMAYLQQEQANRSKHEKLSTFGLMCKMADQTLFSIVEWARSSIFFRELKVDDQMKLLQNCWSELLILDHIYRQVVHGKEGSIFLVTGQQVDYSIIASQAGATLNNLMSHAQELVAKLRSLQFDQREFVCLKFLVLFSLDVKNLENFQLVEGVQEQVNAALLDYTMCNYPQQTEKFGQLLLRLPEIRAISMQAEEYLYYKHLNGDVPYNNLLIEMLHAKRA

[8] = target: DNA repair protein RAD52 homolog (Homo sapiens, UniProt P43351); assay type: functional, biochemical
Sequence of DNA repair protein RAD52 homolog (P43351 whole entry): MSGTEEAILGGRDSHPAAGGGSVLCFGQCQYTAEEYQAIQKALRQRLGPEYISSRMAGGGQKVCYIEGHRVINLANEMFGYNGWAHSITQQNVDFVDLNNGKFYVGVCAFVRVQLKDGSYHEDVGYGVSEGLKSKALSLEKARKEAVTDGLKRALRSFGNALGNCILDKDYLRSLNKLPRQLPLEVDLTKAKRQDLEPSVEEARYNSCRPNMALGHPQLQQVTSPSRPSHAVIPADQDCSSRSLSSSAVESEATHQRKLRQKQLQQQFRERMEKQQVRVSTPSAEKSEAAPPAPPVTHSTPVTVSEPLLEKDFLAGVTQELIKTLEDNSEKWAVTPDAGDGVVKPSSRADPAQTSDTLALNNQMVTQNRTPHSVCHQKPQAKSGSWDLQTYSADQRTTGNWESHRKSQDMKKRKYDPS

Jurkat = test: SAR Analysis of small molecule inhibitors of T-cell specific antigen receptor-induced NF-kB activation in a Jurkat cell line using a luminescence assay - Set 2. [Related pubchem assays (depositor defined):AID435003, AID435012, AID465]; assay type: functional, cell-based; settings: Homo sapiens
HEK293 [9] = test: SAR Analysis of small molecule inhibitors of T-cell specific antigen receptor-induced NF-kB activation in a HEK-293T cell line using a luminescence assay - Set 2. [Related pubchem assays (depositor defined):AID435003, AID435012, AID489026]; assay type: functional, cell-based; settings: Homo sapiens
HEK293 [10] = test: HEK293T cell viability loss, resazurin readout – resazurin fluorescence, cytotoxicity control for NF-kB activator project, SAR follow-up (AID 493251); assay type: functional, cell-based; settings: Homo sapiens, HEK293

Sequence of CAAX prenyl protease 2 (Q9Y256 whole entry): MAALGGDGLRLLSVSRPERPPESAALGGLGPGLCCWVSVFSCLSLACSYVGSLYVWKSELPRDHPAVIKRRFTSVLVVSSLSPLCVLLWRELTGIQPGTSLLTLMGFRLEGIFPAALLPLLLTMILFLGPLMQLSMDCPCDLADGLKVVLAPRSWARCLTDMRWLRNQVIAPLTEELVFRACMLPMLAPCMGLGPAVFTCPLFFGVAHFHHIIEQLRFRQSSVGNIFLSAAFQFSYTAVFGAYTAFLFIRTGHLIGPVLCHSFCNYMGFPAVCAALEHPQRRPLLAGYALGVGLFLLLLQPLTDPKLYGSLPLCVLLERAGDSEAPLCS

Q: For Cc1nc(N2CCCCC2C)c2c(C)c(C(=O)Nc3ccccc3C(F)(F)F)sc2n1 (stereo unspecified), which AC50 (CAAX prenyl protease 2) is on record?
A: 6.65 µM (active)

Q: Which AC50 (Trypsin) does the source give for CCOC(=O)c1sc2nc(C3CC3)cc(-c3ccc(OC)cc3)c2c1N here?
A: 642 nM (active)

Q: What about the AC50 (CAAX prenyl protease 2) of the same molecule?
A: 14.8 µM (active)

Q: Which IC50 [1] does the source give for O=C(CCl)NCCN1C(=O)S/C(=C\c2cccnc2)C1=O here?
A: 21.2 µM (active)

Q: And the IC50 [2]?
A: 26.4 µM (inactive)

Q: And the IC50 [3]?
A: > 80 µM (inactive)

Q: And the IC50 (Steroidogenic factor 1)?
A: 3.69 µM (active)

Q: What about the IC50 [4] of the same molecule?
A: 7.21 µM (active)

Q: And the EC50 [5]?
A: > 300 µM (not active)

Q: And the IC50 (Prothrombin)?
A: > 100 µM (inactive)

Q: What about the EC50 [6] of the same molecule?
A: > 300 µM (not active)

Q: And the IC50 [7]?
A: 8.94 µM (active)

Q: What about the AC50 [8] of the same molecule?
A: 2.24 µM (active)

Q: For COc1ccc(C(NC(=O)Cc2ccccc2)c2ccc3cccnc3c2O)cc1OC (stereo unspecified), which IC50 (Jurkat) is on record?
A: 2.24 µM (active)

Q: And the IC50 (HEK293 [9])?
A: 2.61 µM (active)

Q: What about the IC50 (HEK293 [10]) of the same molecule?
A: 11.2 µM (active)
